Measured values from PMC6422671 (British Journal of Clinical Pharmacology, 2019).

Test: Vital signs; data mean (standard deviation)
Format: in vivo, healthy men
Description: Data are mean (standard deviation)

SMILES: C[C@@H](N)c1cc(Cl)ccc1Cn1c(=S)[nH]c(=O)c2[nH]ccc21 [AZD4831]
- DBP (5 mg fasted, 0.5 h): 71 (7) mmHg
- Pulse (5 mg fasted, 0.5 h): 61 (4) bpm
- SBP (5 mg fasted, 0.5 h): 116 (10) mmHg
- DBP (5 mg fasted, 1 h): 71 (7) mmHg
- Pulse (5 mg fasted, 1 h): 61 (5) bpm
- SBP (5 mg fasted, 1 h): 114 (8) mmHg
- DBP (5 mg fasted, 2 h): 71 (5) mmHg
- Pulse (5 mg fasted, 2 h): 60 (4) bpm
- SBP (5 mg fasted, 2 h): 119 (10) mmHg
- DBP (5 mg fasted, 3 h): 72 (9) mmHg
- Pulse (5 mg fasted, 3 h): 60 (4) bpm
- SBP (5 mg fasted, 3 h): 119 (12) mmHg
- DBP (5 mg fasted, 4 h): 71 (7) mmHg
- Pulse (5 mg fasted, 4 h): 64 (5) bpm
- SBP (5 mg fasted, 4 h): 118 (9) mmHg
- DBP (5 mg fasted, 6 h): 69 (8) mmHg
- Pulse (5 mg fasted, 6 h): 68 (5) bpm
- SBP (5 mg fasted, 6 h): 118 (11) mmHg
- DBP (5 mg fasted, 8 h): 68 (5) mmHg
- Pulse (5 mg fasted, 8 h): 62 (5) bpm
- SBP (5 mg fasted, 8 h): 117 (9) mmHg
- DBP (5 mg fasted, 12 h): 69 (9) mmHg
- Pulse (5 mg fasted, 12 h): 68 (4) bpm
- SBP (5 mg fasted, 12 h): 118 (13) mmHg
- DBP (5 mg fasted, 24 h): 69 (5) mmHg
- Pulse (5 mg fasted, 24 h): 59 (5) bpm
- SBP (5 mg fasted, 24 h): 112 (5) mmHg
- DBP (5 mg fasted, 36 h): 69 (4) mmHg
- Pulse (5 mg fasted, 36 h): 68 (5) bpm
- SBP (5 mg fasted, 36 h): 119 (6) mmHg
- DBP (5 mg fasted, 48 h): 70 (4) mmHg
- Pulse (5 mg fasted, 48 h): 64 (9) bpm
- SBP (5 mg fasted, 48 h): 116 (8) mmHg
- DBP (15 mg fasted, 0.5 h): 68 (4) mmHg
- Pulse (15 mg fasted, 0.5 h): 58 (9) bpm
- SBP (15 mg fasted, 0.5 h): 115 (7) mmHg
- DBP (15 mg fasted, 1 h): 67 (4) mmHg
- Pulse (15 mg fasted, 1 h): 61 (9) bpm
- SBP (15 mg fasted, 1 h): 115 (8) mmHg
- DBP (15 mg fasted, 2 h): 65 (2) mmHg
- Pulse (15 mg fasted, 2 h): 58 (6) bpm
- SBP (15 mg fasted, 2 h): 113 (4) mmHg
- DBP (15 mg fasted, 3 h): 65 (3) mmHg
- Pulse (15 mg fasted, 3 h): 58 (4) bpm
- SBP (15 mg fasted, 3 h): 112 (5) mmHg
- DBP (15 mg fasted, 4 h): 66 (6) mmHg
- Pulse (15 mg fasted, 4 h): 59 (8) bpm
- SBP (15 mg fasted, 4 h): 113 (5) mmHg
- DBP (15 mg fasted, 6 h): 65 (2) mmHg
- Pulse (15 mg fasted, 6 h): 68 (9) bpm
- SBP (15 mg fasted, 6 h): 119 (9) mmHg
- DBP (15 mg fasted, 8 h): 64 (2) mmHg
- Pulse (15 mg fasted, 8 h): 63 (11) bpm
- SBP (15 mg fasted, 8 h): 116 (7) mmHg
- DBP (15 mg fasted, 12 h): 64 (4) mmHg
- Pulse (15 mg fasted, 12 h): 69 (10) bpm
- SBP (15 mg fasted, 12 h): 119 (5) mmHg
- DBP (15 mg fasted, 24 h): 67 (2) mmHg
- Pulse (15 mg fasted, 24 h): 62 (7) bpm
- SBP (15 mg fasted, 24 h): 113 (4) mmHg
- DBP (15 mg fasted, 36 h): 63 (4) mmHg
- Pulse (15 mg fasted, 36 h): 73 (9) bpm
- SBP (15 mg fasted, 36 h): 118 (5) mmHg
- DBP (15 mg fasted, 48 h): 66 (5) mmHg
- Pulse (15 mg fasted, 48 h): 65 (12) bpm
- SBP (15 mg fasted, 48 h): 114 (7) mmHg
- DBP (45 mg fasted, 0.5 h): 73 (14) mmHg
- Pulse (45 mg fasted, 0.5 h): 59 (11) bpm
- SBP (45 mg fasted, 0.5 h): 122 (13) mmHg
- DBP (45 mg fasted, 1 h): 72 (14) mmHg
- Pulse (45 mg fasted, 1 h): 57 (10) bpm
- SBP (45 mg fasted, 1 h): 125 (12) mmHg
- DBP (45 mg fasted, 2 h): 69 (15) mmHg
- Pulse (45 mg fasted, 2 h): 59 (10) bpm
- SBP (45 mg fasted, 2 h): 122 (17) mmHg
- DBP (45 mg fasted, 3 h): 70 (13) mmHg
- Pulse (45 mg fasted, 3 h): 60 (8) bpm
- SBP (45 mg fasted, 3 h): 120 (14) mmHg
- DBP (45 mg fasted, 4 h): 69 (16) mmHg
- Pulse (45 mg fasted, 4 h): 58 (8) bpm
- SBP (45 mg fasted, 4 h): 121 (13) mmHg
- DBP (45 mg fasted, 6 h): 66 (7) mmHg
- Pulse (45 mg fasted, 6 h): 61 (10) bpm
- SBP (45 mg fasted, 6 h): 120 (9) mmHg
- DBP (45 mg fasted, 8 h): 68 (15) mmHg
- Pulse (45 mg fasted, 8 h): 59 (11) bpm
- SBP (45 mg fasted, 8 h): 116 (11) mmHg
- DBP (45 mg fasted, 12 h): 68 (11) mmHg
- Pulse (45 mg fasted, 12 h): 63 (12) bpm
- SBP (45 mg fasted, 12 h): 124 (12) mmHg
- DBP (45 mg fasted, 24 h): 71 (11) mmHg
- Pulse (45 mg fasted, 24 h): 58 (11) bpm
- SBP (45 mg fasted, 24 h): 118 (9) mmHg
- DBP (45 mg fasted, 36 h): 66 (14) mmHg
- Pulse (45 mg fasted, 36 h): 66 (11) bpm
- SBP (45 mg fasted, 36 h): 121 (9) mmHg
- DBP (45 mg fasted, 48 h): 69 (11) mmHg
- Pulse (45 mg fasted, 48 h): 64 (13) bpm
- SBP (45 mg fasted, 48 h): 120 (10) mmHg
